# “And” between values parts separate entries of the source, which are not always exact repeats. Identical values can stand only once. Like-named read-outs stand apart in the source and are kept apart here.
# How the values were obtained:
# MCF-7 cells = experiment: mammosphere formation assay; type: cell-based, human; details: MCF-7, 5 μM; for MFE (%) ave / MFE (control = 1) ave / MFE (%): 7 days; for MFE (%) ave: mean of 3, control 0.87; for MFE (control = 1) ave: relative to control = 1; for MFE (%): single replicates
# Description: We also evaluated antiproliferative activity against cancer stem cells (CSCs), which are a small sub-population in tumour bulk identified in most cancer cells and clinical samples[52]. CSCs have been a major problem in cancer therapy because they are responsible for recurrence, metastasis and drug resistance to chemotherapeutic agents that affect proliferative cells[53]–[56]. Anti-CSC activity was evaluated by the inhibition of sphere-forming ability, a well-studied method to enrich the CSC-like population, and selective cytotoxicity against one of the most reliable CSC markers, aldehyde dehydrogenase (ALDH)-positive cells. […] Low-toxicity 16 was also added as a negative control. […] We next evaluated the three DDPs that inhibited mammosphere formations against ALDH-positive cells, a functional marker for breast CSCs. MCF-7 cells were treated with 1 μM of 11, 12 or 22, and the ALDH-positive cell population was analysed by using a fluorescence activated cell sorter (Supplementary Fig. 46b). […] Thus, for the first time, we successfully found DDPs with potent antiproliferative effects on the CSC-like population in MCF-7 cells, which may lead to new anti-CSC drugs.
# Fig. 5 DDPs show anti-CSC activity in breast cancer cell line MCF-7. a Effect of DDPs on mammosphere formation. After the cells were cultured in the presence of 5 μM DDPs for 7 days, the number of mammospheres was microscopically counted and the percentage of mammosphere-forming cells was determined as mammosphere-forming efficiency (MFE; %). Data represent mean ± s.d. from three independent replicate experiments. P-values were calculated by a two-sided unpaired Student’s t-test, compared with control. b Micrographs show representative images of mammosphere formation from three independent replicate experiments using compound 11, 12, 16, 22. The scale bar, […]. c Effect of DDPs (1 μM, 3 days) on ALDH-positive cells in MCF-7 cells. Data represent mean ± s.d. from three independent replicate experiments. P-values were calculated by a two-sided unpaired Student’s t-test, compared with control. d Dose-dependent effect of compound 12 on ALDH-positive cells in MCF-7 cells. Data represent mean ± s.d. from three independent replicate experiments. P-values were calculated by a two-sided unpaired Student’s t-test. Source data underlying Fig. 5a, c, d are provided in a Source Data file.
# [1] = test system: human immunodeficiency virus-1 (HIV-1); experiment: anti-HIV MAGI assay; type: cell-based; details: anti-HIV
# Excerpt: We examined the inhibitory activities of DDPs against various species of bacteria (both gram-negative and gram-positive bacteria), fungi and viruses. […] In contrast, preliminary screening of the DDPs for anti-viral agents with hepatitis B virus (HBV), measles virus (MV), Epstein-Barr virus (EBV), herpes simplex virus (HSV) and human immunodeficiency virus-1 (HIV-1) indicated their selective inhibition of HIV.
# MAGI cells = experiment: cytotoxicity in the anti-HIV assay (CC50); type: cell-based; details: for Cytotoxicity Avg.: average of numeric determinations; for Cytotoxicity: single determinations
# [2] = cytotoxicity in Drosophila DL1 cells; type: cell-based; details: Drosophila, DL1 cells (embryonic macrophage-derived), DL1 cells
# Description: (§1) We screened the DDPs on the Drosophila assay system for cytotoxicity, inhibitory activity of innate immune signalling and insecticidal activity. The cytotoxicity of the DDPs was evaluated using two cell lines, embryonic macrophage-derived DL1 cells[58]–[60] and larval blood cell-derived l(2)mbn cells, and their IC50 values are listed in Supplementary Table 23.
# DL1 cells = experiment: cytotoxicity in Drosophila DL1 cells; type: cell-based; details: DL1 cells; for IC50: Drosophila melanogaster, cytotoxicity
# Description: as §1
# [3] = cytotoxicity in Drosophila l(2)mbn cells; type: cell-based; details: Drosophila, l(2)mbn cells (larval blood cell-derived)
# Description: as §1
# l(2)mbn cells = experiment: cytotoxicity in Drosophila l(2)mbn cells; type: cell-based; details: for Luminescence Raw1: replicate 1; for Luminescence Raw2: replicate 2; for IC50: Drosophila melanogaster, cytotoxicity
# Description: as §1
# [4] = Human immunodeficiency virus 1, MAGI, average of numeric determinations, read-out: Avg. EC50
# [5] = replicate 1, relative to DMSO 1%, read-out: % viability, viability 1
# [6] = replicate 2, relative to DMSO 1%, read-out: % viability, viability 2
# [7] = average of two replicates, read-out: IC50 Average
# [8] = replicate 1, read-out: IC50 (1)
# [9] = replicate 2, read-out: IC50 (2)
structure (smiles),measurement,setting,value
"C=C1CC[C@@H]2[C@](C)(CC[C@H]3O[C@H](C=C(C)C)C[C@@]23C)[C@@H]1Cc1c(OC)oc(C)c(C)c1=O [Compound 22, O-methylated higginsianin A]",effect on sphere formation,MCF-7 cells,clearly inhibited sphere formation
same,MFE (%) ave,MCF-7 cells,0.41%
same,MFE (control = 1) ave,MCF-7 cells,0.47
same,MFE (%),MCF-7 cells,0.40% and 0.42%
same,EC50,[1]; [4],143 nM
same,Cytotoxicity Avg.,MAGI cells,5.079 µM
same,Cytotoxicity,MAGI cells,5.68 µM and 5.915 µM and 3.643 µM
C=C1CCC2C(C)(CCC=C(C)C)C(O)CCC2(C)C1Cc1c(OC)oc(CO)c(C)c1=O (stereo not drawn) [Compound 16],effect on sphere formation,MCF-7 cells,did not affect sphere formation
same,MFE (%) ave,MCF-7 cells,0.87%
same,MFE (control = 1) ave,MCF-7 cells,1.00
same,MFE (%),MCF-7 cells,0.62% and 1.01% and 0.96%
same,EC50,"[1]; average of numeric determinations, read-out: Avg. EC50",48.2 nM
same,EC50,"[1]; single determinations, read-out: Efficacy (EC50)",55.6 nM and 36.4 nM and 54.6 nM and 46.4 nM
same,Cytotoxicity Avg.,MAGI cells,6.65 µM
"C=C1CC[C@H]2[C@]3(C)C[C@H](C=C(C)C)O[C@H]3CC[C@]2(C)[C@@H]1Cc1c(O)c(C)c(C)oc1=O [Compound 6, subglutinol B]",viability at 0.04 µM,[2]; [5],118%
same,viability at 0.04 µM,[2]; [6],124%
same,viability at 0.2 µM,[2]; [5],23.9%
same,viability at 0.2 µM,[2]; [6],55.3%
same,viability at 1 µM,[2]; [5],7.67%
same,viability at 1 µM,[2]; [6],8.28%
same,viability at 4 µM,[2]; [5],7.86%
same,viability at 4 µM,[2]; [6],7.05%
same,viability at 10 µM,[2]; [5],7.18%
same,viability at 10 µM,[2]; [6],7.39%
same,viability at 20 µM,[2]; [5],7.25%
same,viability at 20 µM,[2]; [6],6.62%
same,Luminescence Raw1,"DL1 cells; 0.04 µM, replicate 1",2426216
same,Luminescence Raw2,"DL1 cells; 0.04 µM, replicate 2",2551013
same,Luminescence Raw1,"DL1 cells; 0.2 µM, replicate 1",492518
same,Luminescence Raw2,"DL1 cells; 0.2 µM, replicate 2",1138346
same,Luminescence Raw1,"DL1 cells; 1 µM, replicate 1",157908
same,Luminescence Raw2,"DL1 cells; 1 µM, replicate 2",170527
same,Luminescence Raw1,"DL1 cells; 4 µM, replicate 1",161874
same,Luminescence Raw2,"DL1 cells; 4 µM, replicate 2",145288
same,Luminescence Raw1,"DL1 cells; 10 µM, replicate 1",147812
same,Luminescence Raw2,"DL1 cells; 10 µM, replicate 2",152139
same,Luminescence Raw1,"DL1 cells; 20 µM, replicate 1",149254
same,Luminescence Raw2,"DL1 cells; 20 µM, replicate 2",136274
same,IC50,DL1 cells; [7],234 nM
same,IC50,"DL1 cells; average±SEM, read-out: IC50",230 ± 70 nM
same,IC50,DL1 cells; [8],166 nM
same,IC50,DL1 cells; [9],303 nM
same,viability at 0.04 µM,[3]; [5],126%
same,viability at 0.04 µM,[3]; [6],138%
same,viability at 0.2 µM,[3]; [5],128%
same,viability at 0.2 µM,[3]; [6],117%
same,viability at 1 µM,[3]; [5],16.5%
same,viability at 1 µM,[3]; [6],20.7%
same,viability at 4 µM,[3]; [5],8.58%
same,viability at 4 µM,[3]; [6],8.06%
same,viability at 10 µM,[3]; [5],8.78%
same,viability at 10 µM,[3]; [6],7.37%
same,viability at 20 µM,[3]; [5],8.3%
same,viability at 20 µM,[3]; [6],7.29%
same,Luminescence Raw1,l(2)mbn cells; 0.04 µM,3229071
same,Luminescence Raw2,l(2)mbn cells; 0.04 µM,3538217
same,Luminescence Raw1,l(2)mbn cells; 0.2 µM,3288590
same,Luminescence Raw2,l(2)mbn cells; 0.2 µM,2991720
same,Luminescence Raw1,l(2)mbn cells; 1 µM,424303
same,Luminescence Raw2,l(2)mbn cells; 1 µM,530313
same,Luminescence Raw1,l(2)mbn cells; 4 µM,220220
same,Luminescence Raw2,l(2)mbn cells; 4 µM,206879
same,Luminescence Raw1,l(2)mbn cells; 10 µM,225268
same,Luminescence Raw2,l(2)mbn cells; 10 µM,189211
same,Luminescence Raw1,l(2)mbn cells; 20 µM,213009
same,Luminescence Raw2,l(2)mbn cells; 20 µM,187048
same,IC50,l(2)mbn cells; [7],850 nM
same,IC50,"l(2)mbn cells; average±SEM, read-out: IC50",850 ± 10 nM
same,IC50,l(2)mbn cells; [8],860 nM
same,IC50,l(2)mbn cells; [9],838 nM
same,EC50,[1]; [4],757 nM
same,Cytotoxicity,MAGI cells,>10 µM

# — publication PMC7156458, “Synthetic biology based construction of biological activity-related library of fungal decalin-containing diterpenoid pyrones” (Nature Communications, 2020)
